Common to all, as to format: functional
Test [1] concerns Staphylococcus aureus. Put plainly: Antibacterial activity against erythromycin A-susceptible Staphylococcus aureus B0329 by agar microdilution method.
Test [2] deals with Staphylococcus aureus. As to the kind of experiment: Antibacterial activity against constitutive macrolide-lincosamide-streptogramin B-resistant Staphylococcus aureus B0330 by agar microdilution method.
In test [3] the test system is Streptococcus pyogenes. As to the kind of experiment: Antibacterial activity against efflux-resistant Streptococcus pyogenes B0545 by agar microdilution method.
Test [4] has as its system Staphylococcus aureus. As to the kind of experiment: Antibacterial activity against inducible macrolide-lincosamide-streptogramin B-resistant Staphylococcus aureus B0538 by agar microdilution method.
For test [5], the system named is Staphylococcus aureus. As to the kind of experiment: Antibacterial activity against efflux-resistant Staphylococcus aureus B0331 by agar microdilution method.
For the next test, the system named is Moraxella catarrhalis. Put plainly: Antibacterial activity against Moraxella catarrhalis B0324 by agar microdilution method.
In test [6] the test system is Streptococcus pyogenes. As to the kind of experiment: Antibacterial activity against constitutive macrolide-lincosamide-streptogramin B-resistant Streptococcus pyogenes B0544 by agar microdilution method.
For test [7], the system named is Streptococcus pyogenes. Put plainly: Antibacterial activity against inducible macrolide-lincosamide-streptogramin B-resistant Streptococcus pyogenes B0543 by agar microdilution method.
In test [8] the test system is Streptococcus pneumoniae. Put plainly: Antibacterial activity against constitutive macrolide-lincosamide-streptogramin B-resistant Streptococcus pneumoniae B0627 by agar microdilution method.
Another test concerns Haemophilus influenzae. Put plainly: Antibacterial activity against Haemophilus influenzae B0529 by agar microdilution method.
Test [9] has as its system Streptococcus pneumoniae. As to the kind of experiment: Antibacterial activity against erythromycin A-susceptible Streptococcus pneumoniae B0541 by agar microdilution method.
The subject of test [10] is Streptococcus pneumoniae. As to the kind of experiment: Antibacterial activity against efflux-resistant Streptococcus pneumoniae B0326 by agar microdilution method.
The subject of test [11] is Streptococcus pyogenes. Put plainly: Antibacterial activity against erythromycin A-susceptible Streptococcus pyogenes B0542 by agar microdilution method.

SMILES strings stand for the structures. Values after ≈ are worked out from the molar mass of the structure shown.

With `CC[C@H]1OC(=O)[C@H](C)C(=O)[C@H](C)[C@@H](O[C@@H]2O[C@H](C)C[C@H](N(C)C)[C@H]2O)[C@](C)(OCC(O)CN(C)CCc2ccc([N+](=O)[O-])cc2)C[C@@H](C)NC(=O)[C@H](C)[C@H](O)[C@@]1(C)O` (stereo not given in full), the MIC in the test with Staphylococcus aureus [1] was at most 0.125 µg/mL; against Staphylococcus aureus [2], over 64 µg/mL; against Streptococcus pyogenes [3], 0.25 µg/mL (≈ 0.303 µM); in the test with Staphylococcus aureus [4], 0.5 µg/mL (≈ 0.606 µM); against Staphylococcus aureus [5] it was 1 µg/mL (≈ 1.21 µM); with Moraxella catarrhalis, at most 0.125 µg/mL. Further, the MIC is 1 µg/mL (≈ 1.21 µM) in the test with Streptococcus pyogenes [6]; 0.25 µg/mL (≈ 0.303 µM) in the test with Streptococcus pyogenes [7]; at most 0.125 µg/mL in the test with Streptococcus pneumoniae [8]; 1 µg/mL (≈ 1.21 µM) against Haemophilus influenzae; at most 0.125 µg/mL in the test on Streptococcus pneumoniae [9]; 0.5 µg/mL (≈ 0.606 µM) against Streptococcus pneumoniae [10]. Also, in the test on Streptococcus pyogenes [11], the MIC was at most 0.125 µg/mL.
On to `CC[C@H]1OC(=O)[C@H](C)C(=O)[C@H](C)[C@@H](O[C@@H]2O[C@H](C)C[C@H](N(C)C)[C@H]2O)[C@](C)(OCC=Cc2cnc3ccccc3c2)C[C@@H](C)C(=O)[C@H](C)[C@H]2NC(=O)O[C@@]21C` [CETHROMYCIN], for which the MIC against Staphylococcus aureus [1] is at most 0.06 µg/mL; in the test on Staphylococcus aureus [2], over 64 µg/mL; against Streptococcus pyogenes [3], at most 0.125 µg/mL; against Staphylococcus aureus [4], 0.25 µg/mL (≈ 0.326 µM); in the test with Staphylococcus aureus [5], 0.25 µg/mL (≈ 0.326 µM); in the test on Moraxella catarrhalis it was at most 0.125 µg/mL. For the same compound, the MIC in the test with Streptococcus pyogenes [6] is 1 µg/mL (≈ 1.31 µM); against Streptococcus pyogenes [7] it was at most 0.06 µg/mL; against Streptococcus pneumoniae [8] it was at most 0.125 µg/mL; against Haemophilus influenzae, 2 µg/mL (≈ 2.61 µM); in the test with Streptococcus pneumoniae [9] it was 0.06 µg/mL (≈ 0.0783 µM); against Streptococcus pneumoniae [10], at most 0.06 µg/mL. In the test on Streptococcus pyogenes [11], this compound showed an MIC of at most 0.06 µg/mL.
With `C=CCO[C@]1(C)C[C@@H](C)C(=O)N[C@H](C)[C@H](O)[C@@](C)(O)[C@@H](CC)OC(=O)[C@H](C)C(=O)[C@H](C)[C@H]1O[C@@H]1O[C@H](C)C[C@H](N(C)C)[C@H]1O` [3-O-DESCLADINOSYL-3-OXO-6-O-ALLYL-9A-AZA-9A-HOMOERYTHROMYCIN A], the MIC against Staphylococcus aureus [1] is over 64 µg/mL; in the test on Staphylococcus aureus [2], over 64 µg/mL; in the test with Streptococcus pyogenes [3], over 64 µg/mL; with Staphylococcus aureus [4], over 64 µg/mL; in the test with Staphylococcus aureus [5], over 64 µg/mL; in the test with Moraxella catarrhalis, 16 µg/mL (≈ 25.4 µM). For the same compound, the MIC against Streptococcus pyogenes [6], against Streptococcus pyogenes [7], in the test with Streptococcus pneumoniae [8], in the test with Haemophilus influenzae, with Streptococcus pneumoniae [9] and with Streptococcus pneumoniae [10] was over 64 µg/mL each time. For the same compound, in the test with Streptococcus pyogenes [11], the MIC is over 64 µg/mL.
`CC[C@H]1OC(=O)[C@H](C)C(=O)[C@H](C)[C@@H](O[C@@H]2O[C@H](C)C[C@H](N(C)C)[C@H]2O)[C@](C)(OCC(O)CN[C@H](C)Cc2ccccc2)C[C@@H](C)NC(=O)[C@H](C)[C@H](O)[C@@]1(C)O` (stereo not given in full): the MIC was 0.5 µg/mL (≈ 0.641 µM) with Staphylococcus aureus [1]; over 64 µg/mL in the test with Staphylococcus aureus [2]; 0.5 µg/mL (≈ 0.641 µM) with Streptococcus pyogenes [3]; 2 µg/mL (≈ 2.56 µM) with Staphylococcus aureus [4]; 2 µg/mL (≈ 2.56 µM) against Staphylococcus aureus [5]; 0.25 µg/mL (≈ 0.321 µM) with Moraxella catarrhalis. Besides, the MIC in the test on Streptococcus pyogenes [6] was 4 µg/mL (≈ 5.13 µM); against Streptococcus pyogenes [7], 0.5 µg/mL (≈ 0.641 µM); with Streptococcus pneumoniae [8], 2 µg/mL (≈ 2.56 µM); against Haemophilus influenzae, 1 µg/mL (≈ 1.28 µM); against Streptococcus pneumoniae [9] it was at most 0.125 µg/mL; in the test with Streptococcus pneumoniae [10], 1 µg/mL (≈ 1.28 µM). Besides, in the test with Streptococcus pyogenes [11], the MIC is at most 0.125 µg/mL.
For the compound `CC[C@H]1OC(=O)[C@H](C)[C@@H](O[C@@H]2C[C@@](C)(OC)[C@@H](O)[C@H](C)O2)[C@H](C)[C@@H](O[C@@H]2O[C@H](C)C[C@H](N(C)C)[C@H]2O)[C@](C)(OC/C=C/NCCc2ccc([N+](=O)[O-])cc2)C[C@@H](C)NC(=O)[C@H](C)[C@H](O)[C@@]1(C)O`, the MIC against Staphylococcus aureus [1] was 0.5 µg/mL (≈ 0.525 µM); in the test on Staphylococcus aureus [2] it was over 64 µg/mL; with Streptococcus pyogenes [3], 16 µg/mL (≈ 16.8 µM); against Staphylococcus aureus [4], 64 µg/mL (≈ 67.1 µM); against Staphylococcus aureus [5] it was 32 µg/mL (≈ 33.6 µM); against Moraxella catarrhalis, 0.25 µg/mL (≈ 0.262 µM). Moreover, the MIC was over 64 µg/mL in the test with Streptococcus pyogenes [6]; 2 µg/mL (≈ 2.1 µM) in the test on Streptococcus pyogenes [7]; 32 µg/mL (≈ 33.6 µM) in the test on Streptococcus pneumoniae [8]; 4 µg/mL (≈ 4.2 µM) in the test on Haemophilus influenzae; 0.06 µg/mL (≈ 0.0629 µM) in the test on Streptococcus pneumoniae [9]; 4 µg/mL (≈ 4.2 µM) in the test on Streptococcus pneumoniae [10]. The compound further returned an MIC with Streptococcus pyogenes [11] of at most 0.06 µg/mL.

The values are drawn from ChEMBL document CHEMBL1287771, “Novel hybrids of 15-membered 8a- and 9a-azahomoerythromycin A ketolides and quinolones as potent antibacterials” (2010).
